Measured values from article PMC8231556, “Inhibiting Endothelial Cell Function in Normal and Tumor Angiogenesis Using BMP Type I Receptor Macrocyclic Kinase Inhibitors” (Cancers, 2021).

Legend:
Test in all cases: radiometric kinase profiling (33 PanQinase)
Format in all cases: biochemical
PRKACA = biological target: T1, PRKACA (Homo sapiens, UniProt P17612); conditions: read-out: Inhibitory effect (%) PRKACA
T1 construct: purchased ProQinase (33PanQinase Activity Assay)
Method in brief: (§1)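 Enzyme/substrate mixes were incubated with [γ-33P]-ATP and compound (added as a 0.1 μM solution in 10% DMSO) at 30 °C for 60 min, then stopped with H3PO4 and washed with NaCl. 33P incorporation was scintillation-counted, and residual activity (%) was normalized to untreated control and background.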

CLK2 = biological target: T2, CLK2 (Homo sapiens, UniProt P49760); conditions: read-out: Inhibitory effect (%) CLK2
T2 construct: purchased Proqinase, Germany
Method in brief: as §1

MAPK3 = biological target: T3, MAPK3 (Homo sapiens, UniProt P27361); conditions: read-out: Inhibitory effect (%) MAPK3
T3 construct: purchased ProQinase (33PanQinase Activity Assay)
Method in brief: as §1

CSNK1G2 = biological target: T4, CSNK1G2 (Homo sapiens, UniProt P78368); conditions: read-out: Inhibitory effect (%) CSNK1G2
T4 construct: purchased Proqinase, Germany
Method in brief: as §1

RPS6KB1 = biological target: T5, RPS6KB1 (Homo sapiens, UniProt P23443); conditions: read-out: Inhibitory effect (%) RPS6KB1
T5 construct: purchased ProQinase (33PanQinase Activity Assay)
Method in brief: as §1

PRKD2 = biological target: T6, PRKD2 (Homo sapiens, UniProt Q9BZL6); conditions: read-out: Inhibitory effect (%) PRKD2
T6 construct: purchased ProQinase (33PanQinase Activity Assay)
T6 sequence (Q9BZL6 1-878): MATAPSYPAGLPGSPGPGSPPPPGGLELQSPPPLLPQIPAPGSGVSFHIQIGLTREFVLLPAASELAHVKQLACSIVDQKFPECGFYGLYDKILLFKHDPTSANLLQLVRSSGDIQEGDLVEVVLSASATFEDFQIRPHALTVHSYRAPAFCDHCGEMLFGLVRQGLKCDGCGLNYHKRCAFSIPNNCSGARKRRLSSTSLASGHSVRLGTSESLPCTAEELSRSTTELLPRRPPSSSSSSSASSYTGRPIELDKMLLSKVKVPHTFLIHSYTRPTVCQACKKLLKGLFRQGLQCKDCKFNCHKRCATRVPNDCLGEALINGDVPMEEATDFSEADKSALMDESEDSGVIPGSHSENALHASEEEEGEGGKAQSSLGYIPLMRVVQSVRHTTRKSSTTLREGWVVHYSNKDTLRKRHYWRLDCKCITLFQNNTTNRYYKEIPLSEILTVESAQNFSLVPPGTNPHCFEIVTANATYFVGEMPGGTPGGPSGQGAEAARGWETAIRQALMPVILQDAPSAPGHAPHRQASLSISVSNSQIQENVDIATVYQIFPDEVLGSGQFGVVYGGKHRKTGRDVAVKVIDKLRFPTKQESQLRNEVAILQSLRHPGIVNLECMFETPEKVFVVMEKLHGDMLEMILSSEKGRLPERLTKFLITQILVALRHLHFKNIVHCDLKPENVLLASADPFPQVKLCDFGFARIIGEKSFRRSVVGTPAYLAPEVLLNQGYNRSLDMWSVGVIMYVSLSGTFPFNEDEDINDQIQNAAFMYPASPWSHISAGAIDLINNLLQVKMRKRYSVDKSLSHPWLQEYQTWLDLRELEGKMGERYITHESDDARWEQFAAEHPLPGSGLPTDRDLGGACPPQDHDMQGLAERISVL
Method in brief: as §1

CAMK2D = biological target: T7, CAMK2D (Homo sapiens, UniProt Q13557); conditions: read-out: Inhibitory effect (%) CAMK2D
T7 construct: purchased Proqinase, Germany
Method in brief: as §1

PHKG2 = biological target: T8, PHKG2 (Homo sapiens, UniProt P15735); conditions: read-out: Inhibitory effect (%) PHKG2
T8 construct: purchased ProQinase (33PanQinase Activity Assay)
T8 sequence (P15735 1-406): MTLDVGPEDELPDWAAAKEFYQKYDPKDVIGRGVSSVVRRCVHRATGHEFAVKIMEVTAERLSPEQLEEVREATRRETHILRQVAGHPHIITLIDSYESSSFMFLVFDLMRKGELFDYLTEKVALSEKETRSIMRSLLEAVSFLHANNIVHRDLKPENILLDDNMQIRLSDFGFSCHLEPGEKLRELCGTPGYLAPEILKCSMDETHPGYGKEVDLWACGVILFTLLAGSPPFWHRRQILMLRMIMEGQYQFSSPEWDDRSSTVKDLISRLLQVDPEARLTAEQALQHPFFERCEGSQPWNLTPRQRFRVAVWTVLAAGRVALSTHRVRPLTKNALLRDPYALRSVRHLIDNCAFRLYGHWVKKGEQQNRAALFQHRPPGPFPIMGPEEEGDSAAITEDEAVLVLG
Method in brief: as §1

FYN = biological target: T9, FYN (Homo sapiens, UniProt P06241); conditions: read-out: Inhibitory effect (%) FYN
T9 construct: purchased ProQinase (33PanQinase Activity Assay)
Method in brief: as §1

T2 sequence (P49760 whole entry): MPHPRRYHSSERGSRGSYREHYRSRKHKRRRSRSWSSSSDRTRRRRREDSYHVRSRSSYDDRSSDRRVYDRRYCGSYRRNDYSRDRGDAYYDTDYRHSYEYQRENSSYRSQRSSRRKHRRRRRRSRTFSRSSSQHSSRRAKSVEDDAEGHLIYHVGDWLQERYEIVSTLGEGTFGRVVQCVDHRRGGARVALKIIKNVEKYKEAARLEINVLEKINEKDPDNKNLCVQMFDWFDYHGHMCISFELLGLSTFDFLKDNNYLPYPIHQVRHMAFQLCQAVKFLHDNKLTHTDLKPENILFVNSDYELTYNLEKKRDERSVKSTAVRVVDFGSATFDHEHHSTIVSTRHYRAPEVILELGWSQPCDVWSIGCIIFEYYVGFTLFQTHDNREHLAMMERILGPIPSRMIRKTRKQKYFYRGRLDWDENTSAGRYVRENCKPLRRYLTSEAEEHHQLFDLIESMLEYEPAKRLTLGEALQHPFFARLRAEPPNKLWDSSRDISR
T7 sequence (Q13557 whole entry): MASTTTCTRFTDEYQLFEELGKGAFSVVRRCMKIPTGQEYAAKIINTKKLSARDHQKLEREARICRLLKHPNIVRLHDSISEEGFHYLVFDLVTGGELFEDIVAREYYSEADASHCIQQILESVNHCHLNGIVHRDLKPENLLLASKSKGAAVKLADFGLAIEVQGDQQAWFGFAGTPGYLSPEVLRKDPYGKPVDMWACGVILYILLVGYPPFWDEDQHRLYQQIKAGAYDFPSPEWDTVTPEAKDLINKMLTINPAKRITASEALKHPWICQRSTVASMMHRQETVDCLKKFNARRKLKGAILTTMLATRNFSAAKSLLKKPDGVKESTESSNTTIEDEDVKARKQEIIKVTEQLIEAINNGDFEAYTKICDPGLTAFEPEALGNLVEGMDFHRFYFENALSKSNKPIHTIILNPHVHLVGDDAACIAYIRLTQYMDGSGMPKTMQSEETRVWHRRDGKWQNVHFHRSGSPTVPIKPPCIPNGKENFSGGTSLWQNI
T3 sequence (P27361 whole entry): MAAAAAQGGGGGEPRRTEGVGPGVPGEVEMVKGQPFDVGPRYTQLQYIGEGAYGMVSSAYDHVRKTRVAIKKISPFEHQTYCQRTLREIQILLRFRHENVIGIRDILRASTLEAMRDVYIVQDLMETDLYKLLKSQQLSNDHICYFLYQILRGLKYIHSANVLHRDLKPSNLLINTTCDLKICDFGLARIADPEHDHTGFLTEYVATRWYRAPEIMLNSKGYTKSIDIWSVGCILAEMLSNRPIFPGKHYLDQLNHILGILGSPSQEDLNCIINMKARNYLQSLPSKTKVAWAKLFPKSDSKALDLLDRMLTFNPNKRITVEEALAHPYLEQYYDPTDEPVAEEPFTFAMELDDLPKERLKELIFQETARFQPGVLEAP
T9 sequence (P06241 whole entry): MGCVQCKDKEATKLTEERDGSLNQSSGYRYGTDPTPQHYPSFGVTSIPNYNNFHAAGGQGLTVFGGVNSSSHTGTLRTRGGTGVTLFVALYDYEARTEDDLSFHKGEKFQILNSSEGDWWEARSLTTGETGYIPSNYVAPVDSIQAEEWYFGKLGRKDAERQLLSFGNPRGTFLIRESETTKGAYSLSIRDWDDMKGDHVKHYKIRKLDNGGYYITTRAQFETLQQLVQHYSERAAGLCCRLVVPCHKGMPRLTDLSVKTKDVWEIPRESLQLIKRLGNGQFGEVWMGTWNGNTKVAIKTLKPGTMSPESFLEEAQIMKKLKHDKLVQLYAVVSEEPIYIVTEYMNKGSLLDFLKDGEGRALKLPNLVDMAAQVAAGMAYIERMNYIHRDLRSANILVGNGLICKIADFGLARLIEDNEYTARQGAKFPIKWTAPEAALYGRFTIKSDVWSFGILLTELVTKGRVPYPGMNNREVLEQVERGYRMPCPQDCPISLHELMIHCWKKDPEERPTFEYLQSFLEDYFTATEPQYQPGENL
T5 sequence (P23443 whole entry): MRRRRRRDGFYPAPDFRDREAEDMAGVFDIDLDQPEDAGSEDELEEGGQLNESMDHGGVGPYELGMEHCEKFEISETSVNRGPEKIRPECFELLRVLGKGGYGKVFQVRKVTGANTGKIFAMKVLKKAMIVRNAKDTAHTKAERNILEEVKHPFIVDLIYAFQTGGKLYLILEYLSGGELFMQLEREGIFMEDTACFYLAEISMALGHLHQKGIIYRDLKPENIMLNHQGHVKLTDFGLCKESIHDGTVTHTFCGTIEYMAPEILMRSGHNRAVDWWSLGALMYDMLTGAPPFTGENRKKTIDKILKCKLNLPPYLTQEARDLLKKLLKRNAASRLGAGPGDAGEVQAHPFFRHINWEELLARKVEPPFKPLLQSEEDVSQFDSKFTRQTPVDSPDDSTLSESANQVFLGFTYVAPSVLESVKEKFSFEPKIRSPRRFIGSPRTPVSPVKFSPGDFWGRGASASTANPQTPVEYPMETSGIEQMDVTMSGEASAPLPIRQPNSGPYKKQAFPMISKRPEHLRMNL
T4 sequence (P78368 whole entry): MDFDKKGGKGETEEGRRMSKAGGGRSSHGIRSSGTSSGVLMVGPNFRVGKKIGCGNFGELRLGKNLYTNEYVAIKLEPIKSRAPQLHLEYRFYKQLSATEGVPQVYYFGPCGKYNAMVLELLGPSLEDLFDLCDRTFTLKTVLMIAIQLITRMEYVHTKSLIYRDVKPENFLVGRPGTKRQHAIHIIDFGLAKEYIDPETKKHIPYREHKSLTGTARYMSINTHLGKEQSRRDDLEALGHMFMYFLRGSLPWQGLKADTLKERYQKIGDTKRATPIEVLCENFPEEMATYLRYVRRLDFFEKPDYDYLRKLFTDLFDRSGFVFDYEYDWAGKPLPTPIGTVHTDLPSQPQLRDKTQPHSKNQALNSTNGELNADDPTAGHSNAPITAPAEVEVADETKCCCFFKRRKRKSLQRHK

Row | Compound | inhibition at 0.1 µM (PRKACA) | inhibition at 0.1 µM (CLK2) | inhibition at 0.1 µM (MAPK3) | inhibition at 0.1 µM (CSNK1G2) | inhibition at 0.1 µM (RPS6KB1) | inhibition at 0.1 µM (PRKD2) | inhibition at 0.1 µM (CAMK2D) | inhibition at 0.1 µM (PHKG2) | inhibition at 0.1 µM (FYN)
1 | CN1CCC(=O)NCCNc2ccn3ncc(c3n2)-c2cccc(c2)C1 [OD29] | 9.09% | 7.62% | -7.55% | -0.5% | -3.52% | 5.45% | 9.77% | -1.93% | 24.6%
2 | CN1CCc2cccc(c2)Nc2nccc(n2)N2CCCc3cc(ccc32)C1 [OD16] | -19.5% | -10% | -13.8% | -15.6% | -15% | 32.2% | -3.48% | 1.87% | -31%
3 | c1ccc2c(-c3cnn4cc(-c5ccc(N6CCNCC6)cc5)cnc34)ccnc2c1 [LDN-193189, reference compound] | -14.1% | 34.2% | -8.08% | -23.1% | 13% | -23.1% | -13.3% | -23.6% | 28.1%
